How the values were obtained:
Mus musculus [1] = species: Mus musculus; experiment: Activity by comparing the number of oocytes on midgets of mosquitoes fed on drug treated on mice (1) with those of insects fed on untreated animals at 6 hr of mosquito feeding; 16/20; format: functional
Plasmodium falciparum [2] = experiment: (§1) Effective concentration for schizonticidal activity against Plasmodium falciparum FDL-HD; format: functional
Mus musculus [3] = experiment: Tested for in vivo gametocytocidal activity against Plasmodium yoelii infected mice (1), on intraperitoneal dose of 10 mg/kg at +24h of mosquito feeding; Activity = No of Oocytes for infectivity; format: functional
Mus musculus [4] = experiment: Gametocytocidal activity against Plasmodium yoelii infected mice (2) on intraperitoneal dose of 10 mg/kg at -1h of mosquito feeding was determined and average of oocyst determined to find infectivity; format: functional
Mus musculus [5] = experiment: Gametocytocidal activity against Plasmodium yoelii infected mice (2) on intraperitoneal dose of 10 mg/kg at 6 hr of mosquito feeding was determined and average of oocyst determined to find infectivity; format: functional
Mus musculus [6] = species: Mus musculus; experiment: Activity by comparing the number of oocytes on midgets of mosquitoes fed on drug treated on mice (1) with those of insects fed on untreated animals at -1h of mosquito feeding; 18/20; format: functional
Mus musculus [7] = experiment: Tested for in vivo gametocytocidal activity against Plasmodium yoelii infected mice, on intraperitoneal dose of 10 mg/kg at -1h of mosquito feeding; Activity = No of Oocytes for infectivity; format: functional
Plasmodium falciparum [8] = experiment: as §1; format: functional, organism-based
Mus musculus [9] = experiment: Tested for in vivo gametocytocidal activity against Plasmodium yoelii infected mice (1), on intraperitoneal dose of 10 mg/kg at +6h of mosquito feeding; Activity = No of Oocytes for infectivity; format: functional
Plasmodium falciparum [10] = experiment: (§2) Effective concentration for gametocidal activity against Plasmodium falciparum FDL-HD; format: functional, organism-based
Mus musculus [11] = species: Mus musculus; experiment: Activity by comparing the number of oocytes on midgets of mosquitoes fed on drug treated on mice (2) with those of insects fed on untreated animals at -1h of mosquito feeding; 13/15; format: functional
Plasmodium falciparum [12] = experiment: as §2; format: functional
Mus musculus [13] = species: Mus musculus; experiment: Activity by comparing the number of oocytes on midgets of mosquitoes fed on drug treated on mice (2) with those of insects fed on untreated animals at -1h of mosquito feeding; 5/15; format: functional
Mus musculus [14] = species: Mus musculus; experiment: Activity by comparing the number of oocytes on midgets of mosquitoes fed on drug treated on mice (1) with those of insects fed on untreated animals at 24 hr of mosquito feeding; 10/12; format: functional
Mus musculus [15] = experiment: Gametocytocidal activity against Plasmodium yoelii infected mice (2) on intraperitoneal dose of 10 mg/kg at 24 hr of mosquito feeding was determined and average of oocyst determined to find infectivity; format: functional
Mus musculus [16] = species: Mus musculus; experiment: Activity by comparing the number of oocytes on midgets of mosquitoes fed on drug treated on mice (2) with those of insects fed on untreated animals at -1h of mosquito feeding; 12/15; format: functional
Mus musculus [17] = species: Mus musculus; experiment: Activity by comparing the number of oocytes on midgets of mosquitoes fed on drug treated on mice (3) with those of insects fed on untreated animals at -1h of mosquito feeding; 8/11; format: functional
Mus musculus [18] = species: Mus musculus; experiment: Activity by comparing the number of oocytes on midgets of mosquitoes fed on drug treated on 1 mice with those of insects fed on untreated animals at 6 hr of mosquito feeding; 0/20; format: functional
Mus musculus [19] = species: Mus musculus; experiment: Activity by comparing the number of oocytes on midgets of mosquitoes fed on drug treated on mice (2) with those of insects fed on untreated animals at 6 hr of mosquito feeding; 0/20; format: functional
Mus musculus [20] = experiment: Gametocytocidal activity against Plasmodium yoelii infected mice (3) on intraperitoneal dose of 10 mg/kg at -1h of mosquito feeding was determined and average of oocysts determined to find infectivity; format: functional
Mus musculus [21] = experiment: Gametocytocidal activity against Plasmodium yoelii infected mice (2) on intraperitoneal dose of 10 mg/kg at -1h of mosquito feeding was determined and average of oocysts determined to find infectivity; format: functional
Mus musculus [22] = species: Mus musculus; experiment: Activity by comparing the number of oocytes on midgets of mosquitoes fed on drug treated on mice (2) with those of insects fed on untreated animals at 24 hr of mosquito feeding; 0/20; format: functional
Mus musculus [23] = species: Mus musculus; experiment: Activity by comparing the number of oocytes on midgets of mosquitoes fed on drug treated on mice (3) with those of insects fed on untreated animals at 6 hr of mosquito feeding; 0/10; format: functional
Mus musculus [24] = species: Mus musculus; experiment: Activity by comparing the number of oocytes on midgets of mosquitoes fed on drug treated on 1 mice with those of insects fed on untreated animals at 24 hr of mosquito feeding; 0/20; format: functional
Mus musculus [25] = species: Mus musculus; experiment: Activity by comparing the number of oocytes on midgets of mosquitoes fed on drug treated on 1 mice with those of insects fed on untreated animals at -1h of mosquito feeding; 15/15; format: functional
Mus musculus [26] = species: Mus musculus; experiment: Activity by comparing the number of oocytes on midgets of mosquitoes fed on drug treated on mice (2) with those of insects fed on untreated animals at -1h of mosquito feeding; 16/20; format: functional
Mus musculus [27] = species: Mus musculus; experiment: Activity by comparing the number of oocytes on midgets of mosquitoes fed on drug treated on 1 mice with those of insects fed on untreated animals at -1h of mosquito feeding; 18/20; format: functional

For COc1cc(NC(C)CCCN)c2ncccc2c1-c1c(OC)cc(NC(C)CCCN)c2ncccc12 (stereo unspecified), the Ratio (Mus musculus [1]) was 16, the IC90 (Plasmodium falciparum [2]) was 0.19 ug well-1 and the Activity (Mus musculus [3]) was over 300. The Activity (Mus musculus [4]) was 260.3, the Activity (Mus musculus [5]) was 221.3 and the Ratio (Mus musculus [6]) was 18. It also gave an Activity (Mus musculus [7]) of over 300, an IC50 (Plasmodium falciparum [8]) of 0.031 ug well-1 and an Activity (Mus musculus [9]) of over 300. For the same compound, the IC50 (Plasmodium falciparum [10]) was 0.036 ug well-1, the Ratio (Mus musculus [11]) was 13 and the IC90 (Plasmodium falciparum [12]) was 0.062 ug well-1. For the same compound, the Ratio (Mus musculus [13]) was 5, the Ratio (Mus musculus [14]) was 10 and the Activity (Mus musculus [15]) was 68.33. It also gave a Ratio (Mus musculus [16]) of 12.
Work on COc1cc(NC(C)CCCN)c2ncccc2c1NC(C)CCCN (stereo unspecified) yielded a Ratio (Mus musculus [17]) of 8, an IC90 (Plasmodium falciparum [2]) of 0.235 ug well-1 and a Ratio (Mus musculus [18]) of 0. It also gave a Ratio (Mus musculus [19]) of 0, an Activity (Mus musculus [20]) of 185 and an Activity (Mus musculus [7]) of 315. It also gave an Activity (Mus musculus [21]) of 240, an IC50 (Plasmodium falciparum [8]) of 0.046 ug well-1 and a Ratio (Mus musculus [22]) of 0. It also gave a Ratio (Mus musculus [23]) of 0, a Ratio (Mus musculus [24]) of 0 and an IC50 (Plasmodium falciparum [10]) of 0.026 ug well-1. For the same compound, the Ratio (Mus musculus [25]) was 15, the IC90 (Plasmodium falciparum [12]) was 0.055 ug well-1 and the Ratio (Mus musculus [26]) was 16.
In the case of COc1c(O)c(NC(C)CCCN)c2ncccc2c1-c1c(OC)c(O)c(NC(C)CCCN)c2ncccc12 (stereo unspecified), the IC90 (Plasmodium falciparum [2]) was 1.75 ug well-1, the IC50 (Plasmodium falciparum [8]) was 0.49 ug well-1 and the IC50 (Plasmodium falciparum [10]) was over 150 ug well-1. For the same compound, the IC90 (Plasmodium falciparum [12]) was over 150 ug well-1.
With CC(CCCN)N(C(C)CCCN)C(C)CCCN (stereo unspecified) the IC90 (Plasmodium falciparum [2]) was 0.245 ug well-1, the IC50 (Plasmodium falciparum [8]) was 0.155 ug well-1 and the IC50 (Plasmodium falciparum [10]) was 0.115 ug well-1. The IC90 (Plasmodium falciparum [12]) was 0.38 ug well-1.
With CC(CCCN)Nc1c(O)c(O)c(NC(C)CCCN)c2ncccc12 (stereo unspecified) the IC90 (Plasmodium falciparum [2]) was over 50 ug well-1, the IC50 (Plasmodium falciparum [8]) was over 50 ug well-1 and the IC50 (Plasmodium falciparum [10]) was over 150 ug well-1. For the same compound, the IC90 (Plasmodium falciparum [12]) was over 150 ug well-1.
For CCN(CC)CCCC(C)Nc1ccnc2cc(Cl)ccc12 (stereo unspecified) [CHLOROQUINE], the IC90 (Plasmodium falciparum [2]) was 0.015 ug well-1 and the IC50 (Plasmodium falciparum [8]) was 0.011 ug well-1.
In the case of COc1cc(NC(C)CCCN)c2ncccc2c1 (stereo unspecified) [PRIMAQUINE], the Ratio (Mus musculus [18]) was 0, the Activity (Mus musculus [7]) was 280.7 and the Ratio (Mus musculus [27]) was 18. For the same compound, the Ratio (Mus musculus [24]) was 0, the IC50 (Plasmodium falciparum [10]) was 0.115 ug well-1 and the IC90 (Plasmodium falciparum [12]) was 0.38 ug well-1.
